Reference: US20230085307A1, “PYRIDAZINONE COMPOUND AND HERBICIDE” (NISSAN CHEMICAL CORPORATION, priority 2019, published 2023)

Key:
Italian ryegrass [1] = assay: Test Example 4: herbicidal effect by soil treatment (Table 19, symbol K); type: in vivo, Italian ryegrass (Lolium multiflorum)
Outline: (§1)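 Applied as a water-diluted emulsion, the compound was sprayed onto soil covering newly sown seeds. Evaluation came three weeks after application, in a greenhouse held at 25° C. to 30° C.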

wild oat = assay: Test Example 5: herbicidal effect by foliage application, plastic box (Table 20, symbol I); type: in vivo, wild oat (Avena fatua); details: foliage application, 320 g/ha, 3 weeks after application
Outline: (§2)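 Sow seeds spot-wise in sterilized diluvial soil; cover with ~1.5 cm soil. Grow 14 days in greenhouse, 25° C. to 30° C. Spray foliage with emulsion diluted to predetermined amount. Rate effect after 3 weeks.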

barnyard grass [2] = assay: Test Example 3: herbicidal effect by foliage application, Wagner pot (Table 18, symbol H); type: in vivo, barnyard grass (Echinochloa crus-galli); details: 320 g/ha
Outline: (§3)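 Plants were sown in alluvial soil held under 0.1–0.5 cm standing water and grown 14 days in a greenhouse at 25–30 °C. An emulsifiable formulation, water-diluted to the set dose, was then sprayed onto the foliage, and effects were scored three weeks later using previously defined criteria.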

oval-leafed pondweed = assay: Test Example 2: herbicidal activity, application during weed generation under submerged conditions (Table 17, symbol C); type: in vivo, oval-leafed pondweed (Monochoria vaginalis); details: AAH 320 g/ha; application during weed generation, submerged conditions
Outline: (§4)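 Wagner pot, alluvial soil, 4 cm flood; mixed sowing of all species; greenhouse 25° C.–30° C. Emulsifiable formulation, water-diluted to predetermined dose, applied to paddy water at 1–2 leaf stage. Effect rated at 3 wk using the earlier test's scoring criteria.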

rice flat sedge = assay: Test Example 3: herbicidal effect by foliage application, Wagner pot (Table 18, symbol E); type: in vivo, rice flat sedge (Cyperus iria); details: 320 g/ha
Outline: as §3

redroot pigweed = assay: Test Example 4: herbicidal effect by soil treatment (Table 19, symbol N); type: in vivo, redroot pigweed (Amaranthus retroflexus)
Outline: as §1

late watergrass [3] = assay: Test Example 1: herbicidal activity, application before weed generation under submerged conditions (Table 16, symbol A); type: in vivo, late watergrass (Echinochloa oryzicola); details: 320 g/ha applied herbicide
Outline: (§5)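 Alluvial soil was flooded to 4 cm depth, weed seeds were sown mixed and 2.5-leaf rice seedlings were transplanted. On sowing day, the compound's emulsion, diluted in water to a set dose, was applied to the water surface. Plants grew at 25–30 °C and were scored 0–5 after three weeks.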

Italian ryegrass [4] = assay: Test Example 5: herbicidal effect by foliage application, plastic box (Table 20, symbol K); type: in vivo, Italian ryegrass (Lolium multiflorum); details: foliage application, 320 g/ha, 3 weeks after application
Outline: as §2

barnyard grass [5] = assay: Test Example 5: herbicidal effect by foliage application, plastic box (Table 20, symbol H); type: in vivo, barnyard grass (Echinochloa crus-galli); details: foliage application, 320 g/ha, 3 weeks after application
Outline: as §2

Chinese sprangletop = assay: Test Example 3: herbicidal effect by foliage application, Wagner pot (Table 18, symbol D); type: in vivo, chinese sprangletop (Leptochloa chinensis); details: 320 g/ha
Outline: as §3

windgrass = assay: Test Example 4: herbicidal effect by soil treatment (Table 19, symbol L); type: in vivo, windgrass (Apera spica-venti)
Outline: as §1

blackgrass = assay: Test Example 5: herbicidal effect by foliage application, plastic box (Table 20, symbol J); type: in vivo, blackgrass (Alopecurus myosuroides); details: foliage application, 320 g/ha, 3 weeks after application
Outline: as §2

late watergrass [6] = assay: Test Example 2: herbicidal activity, application during weed generation under submerged conditions (Table 17, symbol A); type: in vivo, late watergrass (Echinochloa oryzicola); details: AAH 320 g/ha; application during weed generation, submerged conditions
Outline: as §4

green foxtail = assay: Test Example 5: herbicidal effect by foliage application, plastic box (Table 20, symbol G); type: in vivo, green foxtail (Setaria viridis); details: foliage application, 320 g/ha, 3 weeks after application
Outline: as §2

Japanese bulrush = assay: Test Example 1: herbicidal activity, application before weed generation under submerged conditions (Table 16, symbol B); type: in vivo, Japanese bulrush (Schoenoplectus juncoides); details: 320 g/ha applied herbicide
Outline: as §5

SMILES | K: Italian ryegrass, herbicidal effect rating (Italian ryegrass [1]; AAH 320 g/ha) | effect on wild oat (I) (wild oat) | herbicidal effect on H (barnyard grass), rating 0-5 (barnyard grass [2]) | herbicidal effect rating, C: oval-leafed pondweed (oval-leafed pondweed) | herbicidal effect on E (rice flat sedge), rating 0-5 (rice flat sedge) | N: redroot pigweed, herbicidal effect rating (redroot pigweed; AAH 320 g/ha) | Herbicidal effect on A: late watergrass (grade 0-5) (late watergrass [3]) | effect on Italian ryegrass (K) (Italian ryegrass [4]) | effect on barnyard grass (H) (barnyard grass [5]) | herbicidal effect on D (Chinese sprangletop), rating 0-5 (Chinese sprangletop) | L: windgrass, herbicidal effect rating (windgrass; AAH 320 g/ha) | effect on blackgrass (J) (blackgrass) | herbicidal effect rating, A: late watergrass (late watergrass [6]) | effect on green foxtail (G) (green foxtail) | Herbicidal effect on B: Japanese bulrush (grade 0-5) (Japanese bulrush) | herbicidal effect rating, K: Italian ryegrass (Italian ryegrass [1]; 320 g/ha) | herbicidal effect rating, N: redroot pigweed (redroot pigweed; 320 g/ha) | herbicidal effect rating, L: windgrass (windgrass; 320 g/ha)
Cc1nn(C)c(=O)c(-c2c(-c3ccc(F)cc3)sc3ccc(F)cc23)c1O [2-001] | 4 (Herbicidal rate of 70% or more and less than 90%) | 5 (Herbicidal rate of 90% or more (almost completely withered)) | 5 (Herbicidal rate of 90% or more (almost completely withered)) | 3 (Herbicidal rate of 40% or more and less than 70%) | 5 (Herbicidal rate of 90% or more (almost completely withered)) | 5 (Herbicidal rate of 90% or more (almost completely withered)) | 2 (Herbicidal rate of 20% or more and less than 40%) | 5 (Herbicidal rate of 90% or more (almost completely withered)) | 5 (Herbicidal rate of 90% or more (almost completely withered)) | 5 (Herbicidal rate of 90% or more (almost completely withered)) | 0 (Herbicidal rate of 5% or less (almost no effect)) | 4 (Herbicidal rate of 70% or more and less than 90%) | 1 (Herbicidal rate of 5% or more and less than 20%) | 5 (Herbicidal rate of 90% or more (almost completely withered)) | 3 (Herbicidal rate of 40% or more and less than 70%) | – | – | –
CCCC(=O)Oc1c(C)nn(C)c(=O)c1-c1c(-c2ccc(Cl)cc2)sc2ccc(F)cc12 [2-011] | – | 3 (Herbicidal rate of 40% or more and less than 70%) | 5 (Herbicidal rate of 90% or more (almost completely withered)) | 3 (Herbicidal rate of 40% or more and less than 70%) | 5 (Herbicidal rate of 90% or more (almost completely withered)) | – | 3 (Herbicidal rate of 40% or more and less than 70%) | 5 (Herbicidal rate of 90% or more (almost completely withered)) | 5 (Herbicidal rate of 90% or more (almost completely withered)) | 4 (Herbicidal rate of 70% or more and less than 90%) | – | 2 (Herbicidal rate of 20% or more and less than 40%) | 2 (Herbicidal rate of 20% or more and less than 40%) | 5 (Herbicidal rate of 90% or more (almost completely withered)) | 3 (Herbicidal rate of 40% or more and less than 70%) | 5 (Herbicidal rate of 90% or more (almost completely withered)) | 4 (Herbicidal rate of 70% or more and less than 90%) | 2 (Herbicidal rate of 20% or more and less than 40%)
